A short description of the series: stability of solid form (statement only). The series is classed as physicochemical. To be noted: qualitative statement, no data.

The text below walks through data of patent publication US20250288681A1, “SOLID COMPOSITIONS COMPRISING A GLUCOKINASE ACTIVATOR AND METHODS OF MAKING AND USING THE SAME” (vTv Therapeutics LLC, priority 2013, published 2025).

Turning to `CCCO[C@H]1CC[C@H](N(C(=O)Nc2ncc(SCC(=O)O)s2)C2CCCCC2)CC1` [UD1-FA, {2-[3-cyclohexyl-3-(trans-4-propoxy-cyclohexyl)-ureido]-thiazol-5-ylsulfanyl}-acetic acid], the stability result is listed as “greater stability relative to some of its pharmaceutically acceptable salts”. Take `CCCO[C@H]1CC[C@H](N(C(=O)Nc2ncc(SCC(=O)O)s2)C2CCCCC2)CC1` [Form A, {2-[3-cyclohexyl-3-(trans-4-propoxy-cyclohexyl)-ureido]-thiazol-5-ylsulfanyl}-acetic acid]: the stability result was “particularly stable”.
